Test results reported in patent US20210308173A1, “PHARMACEUTICAL COMPOSITION COMPRISING CYCLODEXTRIN COMPLEXES OF ANETHOLE TRITHIONE OR DERIVATIVES THEREOF” (priority 2018, published 2021).

What was measured:
Type in all cases: physicochemical
[1] = Co-solvent addition: AOL solubility; details: for solubility at 4 h: aqueous with cosolvent or surfactant or cyclodextrin, thermodynamic from solid
Method: SBE-β-CD compatible excipients, namely polyethylene glycol and polysorbate (Tween), were evaluated for their AOL aqueous solubilizing power. Screening was carried out in same conditions as that of solubilization screening by cyclodextrins (see Example 3).
Briefly, 20% (w/w) solutions of each excipient were prepared. An excess of AOL was added and the solutions were analyzed by HPLC after 4 hours of stirring.
The effect of the combination of SBE-β-CD and Tween 80 was measured in a comparative assay by solubilizing AOL in: (A) Tween 80, 10% (w/w); (B) SBE-β-CD 10% (w/w) (C) Tween 80 and SBE-β-CD 10% (w/w) each; (D) Tween 80 20% (w/w) (E) SBE-β-CD 20% (w/w); and (F) Tween 80 and SBE-β-CD 20% (w/w) each.
Further assays, resumed in Tables 7 and 8, confirmed that Tween 80/SBE-β-CD is a promising excipient mixture for the solubilization of AOL.

[2] = Stability versus formulation according to Dollo et al.; details: formulation of the invention vs formulation according to Dollo et al.
From the text: Consequently, the formulations wherein anethole trithione and derivatives thereof present an improved solubility and stability are still an unmet need.

[3] = Incompatibility of AOL with lipid carriers (visual examination)
Method: 100 mg of AOL were successfully dissolved in 20 mL of polyglyceryl-3 dioleate (Plurol® Oleique). A homogenous vividly orange colored solution was obtained with less than 5 minutes of magnetic stirring.
The obtained solution turned greed with obvious aspect and odor having turned rancid.
100 mg of AOL were successfully dissolved in 20 mL of 2-[2,3-bis(2-hydroxyethoxy)propoxy]ethanol; hexadecanoic acid; octadecanoic acid (Labrafil® M1944). A homogenous orange colored solution was obtained with less than 5 minutes of magnetic stirring.
The obtained solution turned dark green.
A new solution of 5 mg/mL AOL in Labrafil® M1944 and stocked in a hermetically closed recipient.

[4] = Chemical stability of AOL in cyclodextrin solutions by HPLC; details: associated with HP-β-CD, conditions of Example 4

**Q.** For `COc1ccc(-c2cc(=S)ss2)cc1` [AOL, 5-(4-methoxyphenyl)-3H-1,2-dithiole-3-thione], which solubility at 4 h ([1]; aqueous HP-β-CD solution, HP-β-CD 20% (w/w), Tween 80 10% (w/w)) is on record?
**A.** 396 µg/mL

**Q.** And the solubility at 4 h ([1]; aqueous HP-β-CD solution, HP-β-CD 20% (w/w), Tween 80 20% (w/w))?
**A.** 660 µg/mL

**Q.** What about the solubility at 4 h ([1]; aqueous HP-β-CD solution, HP-β-CD 20% (w/w), co-solvent 0% (w/w)) of the same molecule?
**A.** 283 µg/mL

**Q.** And the solubility at 4 h ([1]; aqueous HP-β-CD solution, HP-β-CD 30% (w/w), Cremophor 10% (w/w))?
**A.** 642 µg/mL

**Q.** What about the solubility at 4 h ([1]; aqueous HP-β-CD solution, HP-β-CD 30% (w/w), PVP 12PF 0.5% (w/w)) of the same molecule?
**A.** 532 µg/mL

**Q.** And the solubility at 4 h ([1]; aqueous HP-β-CD solution, HP-β-CD 30% (w/w), PVP 12PF 2.0% (w/w))?
**A.** 517 µg/mL

**Q.** What about the solubility at 4 h ([1]; aqueous HP-β-CD solution, HP-β-CD 30% (w/w), Tween 80 2% (w/w)) of the same molecule?
**A.** 426 µg/mL

**Q.** What about the solubility at 4 h ([1]; aqueous HP-β-CD solution, HP-β-CD 30% (w/w), Tween 80 10% (w/w)) of the same molecule?
**A.** 439 µg/mL

**Q.** What about the solubility at 4 h ([1]; aqueous HP-β-CD solution, HP-β-CD 30% (w/w), Tween 80 20% (w/w)) of the same molecule?
**A.** 1680 µg/mL

**Q.** And the solubility at 4 h ([1]; aqueous HP-β-CD solution, HP-β-CD 30% (w/w), co-solvent 0% (w/w))?
**A.** 540 µg/mL

**Q.** What about the solubility at 4 h ([1]; aqueous SBE-β-CD solution, SBE-β-CD 20% (w/w), Cremophor 10% (w/w)) of the same molecule?
**A.** 644 µg/mL

**Q.** What about the solubility at 4 h ([1]; aqueous SBE-β-CD solution, SBE-β-CD 20% (w/w), PVP 12PF 0.5% (w/w)) of the same molecule?
**A.** 389 µg/mL

**Q.** And the solubility at 4 h ([1]; aqueous SBE-β-CD solution, SBE-β-CD 20% (w/w), PVP 12PF 2.0% (w/w))?
**A.** 371 µg/mL

**Q.** And the solubility at 4 h ([1]; aqueous SBE-β-CD solution, SBE-β-CD 20% (w/w), Tween 80 2% (w/w))?
**A.** 374 µg/mL

**Q.** And the solubility at 4 h ([1]; aqueous SBE-β-CD solution, SBE-β-CD 20% (w/w), Tween 80 10% (w/w))?
**A.** 587 µg/mL

**Q.** And the solubility at 4 h ([1]; aqueous SBE-β-CD solution, SBE-β-CD 20% (w/w), Tween 80 20% (w/w))?
**A.** 829 µg/mL

**Q.** What about the solubility at 4 h ([1]; aqueous SBE-β-CD solution, SBE-β-CD 20% (w/w), co-solvent 0% (w/w)) of the same molecule?
**A.** 375 µg/mL

**Q.** What about the solubility at 4 h ([1]; aqueous SBE-β-CD solution, SBE-β-CD 30% (w/w), Cremophor 10% (w/w)) of the same molecule?
**A.** 814 µg/mL

**Q.** And the solubility at 4 h ([1]; aqueous SBE-β-CD solution, SBE-β-CD 30% (w/w), PVP 12PF 0.5% (w/w))?
**A.** 668 µg/mL

**Q.** And the solubility at 4 h ([1]; aqueous SBE-β-CD solution, SBE-β-CD 30% (w/w), PVP 12PF 2.0% (w/w))?
**A.** 670 µg/mL

**Q.** And the solubility at 4 h ([1]; aqueous SBE-β-CD solution, SBE-β-CD 30% (w/w), Tween 80 2% (w/w))?
**A.** 630 µg/mL

**Q.** What about the solubility at 4 h ([1]; aqueous SBE-β-CD solution, SBE-β-CD 30% (w/w), Tween 80 10% (w/w)) of the same molecule?
**A.** 616 µg/mL

**Q.** And the solubility at 4 h ([1]; aqueous SBE-β-CD solution, SBE-β-CD 30% (w/w), Tween 80 20% (w/w))?
**A.** 1280 µg/mL

**Q.** What about the solubility at 4 h ([1]; aqueous SBE-β-CD solution, SBE-β-CD 30% (w/w), co-solvent 0% (w/w)) of the same molecule?
**A.** 685 µg/mL

**Q.** What about the “influence of PVP 12PF on solubility” value ([1]; cyclodextrin media) of the same molecule?
**A.** did not had any influence

**Q.** What about the “solubility in Tween 80 compared with SBE-β-CD solutions” value ([1]; same temperature and concentration of excipient) of the same molecule?
**A.** higher solubility in Tween 80

**Q.** What about the “stability of the active compound” value [2] of the same molecule?
**A.** significantly more stable

**Q.** And the “visual examination of the solution” value ([3]; 5 mg/mL in Labrafil M1944, hermetically closed recipient, 24 hours at room temperature)?
**A.** same stability problem

**Q.** And the “magnetic stirring time to homogenous solution” value ([3]; 100 mg in 20 mL Labrafil M1944)?
**A.** less than 5 minutes

**Q.** And the “magnetic stirring time to homogenous solution” value ([3]; 100 mg in 20 mL polyglyceryl-3 dioleate (Plurol Oleique))?
**A.** less than 5 minutes

**Q.** What about the “visual examination of the solution” value ([3]; Labrafil M1944, after 24 hours at room temperature) of the same molecule?
**A.** intense color change

**Q.** What about the “visual examination of the solution” value ([3]; Plurol Oleique, after 24 hours at room temperature) of the same molecule?
**A.** intense color change

**Q.** And the “stability within lipid carriers” value ([3]; period of 24 hours, visual observation)?
**A.** unstable

**Q.** And the “chemical stability (HPLC impurities)” value [4]?
**A.** chemical instability
